Experimental findings from US20100035848A1, “THERAPY FOR DISORDERS OF THE PROXIMAL DIGESTIVE TRACT” (priority 2008, published 2010) are described below.

“And” between values parts separate entries of the source, which are not always exact repeats. Identical values can stand only once.

For assay [1], the system named is NF-κB dependent transcription. As to the kind of experiment: In vivo imaging of basal NF-κB dependent transcription in NF-κB::Luc reporter mice. Details: species or system mouse. The following applies: male NF-κB::Luc mice, 4 hours, FIG. 2. Here is the method:
GL1001 was tested for in vivo anti-inflammatory activity by examining its effects on basal levels of NF-κB dependent transcription in mice engineered in the germline with a construct containing an NF-κB enhancer linked to a luciferase gene (i.e., NF-κB::Luc mice), such that this NE-κB reporter construct is present in all cells of the mice.
More particularly, transgenic NF-κB::Luc mice were generated using three NF-κB response elements from the Igκ light chain promoter fused to a firefly luciferase gene as described by Carlsen et al. (2002) J. Immunol. 168:1441-1446. Pronuclear microinjection of purified construct DNA was used to generate transgenic founders in the C57BL/6 XCBA/J background. Founders were subsequently back-crossed to the C57BL/6 albino background. […] Signal data were also quantitated and archived using the Living Image® software. Photons of light were quantitated using an oval region of interest (ROI) of varying sizes depending on the procedure, as described further below.
To test for in vivo effects of GL1001 on basal levels of NF-κB dependent transcription, male NF-κB::Luc mice were subjected to quantitative in vivo imaging of the abdominal area (using a fixed ROT of 2.76×3.7 cm) as described above, immediately before, and at 2, […]

For assay [2], the system named is activator protein-1 (AP-1). As to the kind of experiment: In vivo basal reporter luciferase expression in AP-1::Luc mice. Details: species or system mouse. The note with it: data not shown.
Assay [3] deals with LPS-induced NF-κB dependent transcription. The assay can be described thus: In vivo imaging of LPS-induced NF-κB dependent transcription in NF-κB::Luc mice. The arrangement: species or system mouse. An excerpt:
More particularly, transgenic NF-κB::Luc mice were generated using three NF-κB response elements from the Igκ light chain promoter fused to a firefly luciferase gene as described by Carlsen et al. (2002) J. Immunol. 168:1441-1446. Pronuclear microinjection of purified construct DNA was used to generate transgenic founders in the C57BL/6 XCBA/J background. Founders were subsequently back-crossed to the C57BL/6 albino background. All experimental protocols were approved by the Institutional Animal Care and Use Committee and conform to the ILAR guide for the care and used of laboratory animals. For in vivo imaging, NF-κB::Luc mice were injected intraperitoneally with luciferin (150 mg/1 kg) 10 minutes before imaging, anesthetized (using 1-3% isoflurane) and placed into a light-tight camera box. […] Signal data were also quantitated and archived using the Living Image® software. Photons of light were quantitated using an oval region of interest (ROI) of varying sizes depending on the procedure, as described further below.
GL1001 was further tested for in vivo anti-inflammatory activity by examining its effects on bacterial LPS-induced NF-κB dependent transcription in NF-κB::Luc mice. […] Mice were subjected to quantitative abdominal imaging at 2, 4 and 6 hours following LPS administration, as described above. […] Luciferase signal was quantitated from several regions of interest. […]

Assay [4] deals with diclofenac-induced gastric damage. As to the kind of experiment: Acute diclofenac-induced gastric toxicity in rats: gastric damage score. The note with it: Group C: GL1001 90 mg/kg oral gavage 30 min before diclofenac 50 mg/kg oral, 3 h; vehicle-diclofenac Group B 17.80 ± 5.08; p<0.02. The format is in vivo, rat. As for the experimental part: (§1) Male Wistar rats were deprived of food but not water for 16 hours prior to oral administration of GL1001 90 mg/kg, incubated for 30 minutes and then given oral diclofenac 50 mg/kg. Each group consisted of 6 rats. As a negative control, one group received vehicle pretreatment, and then received vehicle instead of diclofenac. A positive control group received PGE2 100 μg/kg orally, 30 minutes prior to administration of diclofenac. All treatments were administered by oral gavage.
(§2) Three hours after diclofenac treatment, all animals were sacrificed and stomachs were removed and imaged to determine the severity of gastric damage. Additionally, stomach tissue samples were taken to assess disease activity and pharmacodynamic effects. Gastric damage scores were determined from photographic images (Ma & Wallace (2003) Am. J. Physiol. Gastrointest. Liver Physiol. 279; 341-346). Removed stomachs were opened along the greater curvature, pinned out on a wax block, and photographed along a 25 mm ruler reference with a digital 35 mm camera. The lesion area was then determined using enlarged images and computer software (www.scioncorp.co/pages/scion_image_windows.htm) that allows superimposed drawing of the perimeter of a wound and calculation of the area based on the ruler reference. Stomach samples (excluding forestomach) were used for measurements of PGE2 concentration, MPO activity and ACE2 activity. PRE2 determinations are used in this study as a hiomarker of diclofenac effect since its mechanism of action involves inhibition of cyclooxygenase (COX-2 and COX-1) enzymes which in turn results in inhibition of PGE2 synthesis. Concentration of PGE2 from stomach tissue samples was performed as described by Souza et al. (2003), supra, and quantification was obtained by LC-MS. MTO, an enzyme found in abundance in granulocytes, is used as a biochemical marker of tissue inflammation. When tissues undergo inflammatory processes, granulocytes are recruited to the site of inflammation and infiltrate the affected tissue giving rise to increase MPO activity (Souza et al. (2003), supra). Last, the extent of inhibition of ACE2 activity was determined to establish whether GL1001 was effective in inhibiting its ACE2 target in stomach tissues. The ACE2 activity assay is similar to the method of Vickers et al. (2002) J. Biol. Chem. 277:14838-14843, wherein purified recombinant ACE2 (100 pM) and a quenched fluorescent substrate (100-150 μM APK (7-methoxycoumarin-4-yl)acetyl-Ala-Pro-Lys (2,4-dinitrophenyl)) are used in end-point fluorescence reactions (excitation 320 nm, emission 405 nm). For stomach ACE2 measurements, tissues were homogenized in the presence of a general protease inhibitor (PMSF) and specific ACE inhibitors. […]
(§3) Data are expressed as means with standard errors. […]

A further assay relates to gastric PGE2. The assay can be described thus: Acute diclofenac-induced gastric toxicity in rats: gastric PGE2 concentration. The format is in vivo, rat. The note with it: Group C: GL1001 oral before diclofenac 50 mg/kg; vehicle/vehicle Group A 43.22 ± 12.13. Here is the method:
as §1
as §2, with “PRE2 determinations are used in this study as a hiomarker of diclofenac effect since its mechanism of action involves inhibition of cyclooxygenase (COX-2 and COX-1) enzymes which in turn results in inhibition of PGE2 synthesis.” left out, “MTO, an enzyme found in abundance in granulocytes, is used as a biochemical marker of tissue inflammation. When tissues undergo inflammatory processes, granulocytes are recruited to the site of inflammation and infiltrate the affected tissue giving rise to increase MPO activity (Souza et al. (2003), supra).” left out, “nm).” for “nm). For stomach ACE2 measurements, tissues were homogenized in the presence of a general protease inhibitor (PMSF) and specific ACE inhibitors.”
as §3

`CC(C)C[C@H](N[C@@H](Cc1cncn1Cc1cc(Cl)cc(Cl)c1)C(=O)O)C(=O)O` [GL1001, (S,S)-2-[1-carboxy-2-[3-(3,5-dichlorobenzyl)-3H-imidazol-4-yl]-ethylamino]-4-methylpentanoic acid]: the “inhibition of basal in vivo levels of NF-κB dependent transcription in abdominal ROI” value is recorded as “over 40%” in assay [1] (300 mg/kg s.c., p<0.01) and “lesser but still significant extents” in assay [1] (both lower doses s.c.). Further, the “effect on basal in vivo levels of reporter luciferase expression” value in assay [2] is “no significant effect”. For the same compound, the “LPS induced NF-κB signaling response, abdominal region” value in assay [3] (GL1001 30, 100 and 300 mg/kg s.c. 1 hour before LPS i.v., FIG. 3) is “significantly reduced”. For the same compound, the “LPS-induced NF-κB signaling, abdominal region” value in assay [3] (repeat with dose range 3-100 mg/kg s.c., effect at 30 and 100 mg/kg, FIG. 4) is listed as “significantly reduced”. For the same compound, in assay [4], the Gastric damage score was 2.6 and 2.63 ± 0.87. Moreover, the “Gastric PGE2 concentration” value in the assay with gastric PGE2 is reported as 0 pg/mg.
